{
  "source": "ChEMBL document CHEMBL3817841",
  "about": "“Biological evaluation of quinoline derivatives as inhibitors of human dihydroorotate dehydrogenase” (Medchemcomm, 2016)",
  "key": {"[1]": {"target": "T1, Dihydroorotate dehydrogenase (quinone), mitochondrial (Homo sapiens, UniProt Q02127)", "T1 sequence (Q02127 whole entry, the tested form may be a part)": "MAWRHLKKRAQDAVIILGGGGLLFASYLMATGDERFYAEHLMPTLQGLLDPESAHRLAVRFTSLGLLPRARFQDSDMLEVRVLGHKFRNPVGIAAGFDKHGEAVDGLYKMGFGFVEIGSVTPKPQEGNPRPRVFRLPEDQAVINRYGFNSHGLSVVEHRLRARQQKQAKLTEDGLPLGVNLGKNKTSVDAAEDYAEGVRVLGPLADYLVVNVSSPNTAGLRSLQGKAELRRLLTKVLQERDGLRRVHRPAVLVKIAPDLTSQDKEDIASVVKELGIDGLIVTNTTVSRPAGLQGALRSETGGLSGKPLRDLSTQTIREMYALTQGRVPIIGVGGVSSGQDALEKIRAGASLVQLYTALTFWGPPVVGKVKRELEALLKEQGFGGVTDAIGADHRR", "test": "Inhibition of N-terminally truncated human DHODH (Met30 to Arg396 residues) expressed in Escherichia coli BL21 (DE3) using dihydroorotate as substrate preincubated for 5 mins followed by substrate addition measured every 30 secs for 6 mins by DCIP-based spectrophotometric assay"}, "[2]": {"target": "T1, Dihydroorotate dehydrogenase (quinone), mitochondrial", "test": "Binding affinity to N-terminally truncated human DHODH (Met30 to Arg396 residues) expressed in Escherichia coli BL21 (DE3) assessed as dissociation rate constant by surface plasmon resonance assay"}, "[3]": {"target": "T1, Dihydroorotate dehydrogenase (quinone), mitochondrial", "description": "Binding affinity to N-terminally truncated human DHODH (Met30 to Arg396 residues) expressed in Escherichia coli BL21 (DE3) assessed as change in melting temperature at 100 uM by fluorescence-based thermal shift assay"}, "[4]": {"target": "T1, Dihydroorotate dehydrogenase (quinone), mitochondrial", "remark": "listed apart in the source", "description": "Binding affinity to N-terminally truncated human DHODH (Met30 to Arg396 residues) expressed in Escherichia coli BL21 (DE3) assessed as association rate constant by surface plasmon resonance assay"}, "[5]": {"target": "T1, Dihydroorotate dehydrogenase (quinone), mitochondrial", "test": "Binding affinity to N-terminally truncated human DHODH (Met30 to Arg396 residues) expressed in Escherichia coli BL21 (DE3) by surface plasmon resonance assay"}},
  "data": [
    {"smiles": "CCCCOc1cccc(-c2cc(C(=O)O)c3ccccc3n2)c1", "values": [
      {"measurement": "IC50", "setting": "[1]", "result": 1310, "unit": "nM"}
    ]},
    {"smiles": "COC(=O)c1cc(-c2ccc(OC)c(OC)c2)nc2ccccc12", "values": [
      {"measurement": "IC50", "setting": "[1]", "result": 3250, "unit": "nM"}
    ]},
    {"smiles": "CCC(C)c1ccc(-c2nc3ccc(Br)cc3c(C(=O)O)c2C)cc1", "note": "(stereo not drawn)", "values": [
      {"measurement": "koff", "setting": "[2]", "result": 7.58, "unit": "×10⁻³ /s"},
      {"measurement": "IC50", "setting": "[1]", "result": 9.7, "unit": "nM"},
      {"measurement": "ΔTm", "setting": "[3]", "result": 16.6, "unit": "°C"},
      {"measurement": "Ka", "setting": "[4]", "result": 5.99, "unit": "×10⁵ /M/s"},
      {"measurement": "Kd", "setting": "[5]", "result": 12, "unit": "nM"}
    ]},
    {"smiles": "CCCCc1ccc(-c2cc(C(=O)O)c3ccccc3n2)cc1", "values": [
      {"measurement": "IC50", "setting": "[1]", "result": 437, "unit": "nM"}
    ]},
    {"smiles": "O=C(O)c1cc(-c2ccc(Cl)cc2Cl)nc2ccc(Br)cc12", "values": [
      {"measurement": "IC50", "setting": "[1]", "result": 666, "unit": "nM"}
    ]},
    {"smiles": "CC(C)c1ccc(-c2cc(C(=O)O)c3cc(Br)ccc3n2)cc1", "values": [
      {"measurement": "IC50", "setting": "[1]", "result": 136, "unit": "nM"}
    ]},
    {"smiles": "O=C(O)c1cc(-c2ccc(Cl)c(Cl)c2)nc2ccc(Br)cc12", "values": [
      {"measurement": "IC50", "setting": "[1]", "result": 57.1, "unit": "nM"}
    ]},
    {"smiles": "Cc1c(-c2ccc(C(C)C)cc2)nc2ccccc2c1C(=O)O", "values": [
      {"measurement": "IC50", "setting": "[1]", "result": 1570, "unit": "nM"}
    ]},
    {"smiles": "O=C(O)c1cc(-c2ccc3c(c2)OCO3)nc2ccccc12", "values": [
      {"measurement": "IC50", "setting": "[1]", "result": 5180, "unit": "nM"}
    ]}
  ]
}
